Assay results: patent US8722634B2, “Use of compounds extracted from Momordica charantia L. in the manufacture of medicaments for prevention and treatment of diabetes and obesity” (Shanghai Institute of Materia Medica, Chinese Academy of …, priority 2008, dated 2014)

Assays:
[1] = system: alloxan-induced diabetic mice; settings: 400 mg/kg, effect reported was very mild; cited from earlier work
[2] = system: glucose transporter 4 (GLUT4); test: translocation of glucose transporter 4 (GLUT4) to the cell membrane in L6 myotubes; format: cell-based; settings: 10 μM, 2 hours
Procedure: Effects of isolated compounds on the translocation of glucose transporter 4 (GLUT4) from cytosol to the cell membrane (FIG. 2)
After L6 cells were differentiated to myotube completely, they were treated for 2 hours with various test compounds, namely trihydroxycucurbita-5,23(E)-dien-19-al, 22(S),23(R),24(R),25-tetrahydroxycucurbita-5-ene, momordicoside A, momordicoside B (final concentration 10 μM, each) or 100 nM insulin (as positive control). The data were expressed as mean±standard error (X±SE) (n=3-4). The significance was shown as ***p<0.001 compared with solvent control groups.

[3] = system: adenosine monophosphate-activated protein kinase (AMPK); test: AMPK activation (pACC, pAMPK) in 3T3-L1 adipose cells; format: cell-based; settings: for activation of the AMPK signaling pathway (pACC, pAMPK): 10 μM, 60 minutes
Procedure: Testing the activities of trihydroxycucurbita-5,23(E)-diene-19-aldehyde and 22(S), 23(R),24(R),25-tetrahydroxy cucurbita-5-ene on adenosine monophosphate-activated protein kinase (AMPK) (FIG. 3)
3T3-L1 adipose cells was incubated for 60 minutes in a medium containing 10 μM compounds, or in a medium containing 2 mM 5-amino4-imidazolecarboxamide nucleotide (AIC, positive control) or DMSO as a solvent control, followed by being treated with 100 nM insulin for 2 minutes or 25 minutes. Then the proteins pACC and pAMPK in cell lysate were determined with corresponding antibodies. The total amount of protein 14-3-3 was used as the quality control for sample loading.
(§1) According the processes in experimental examples 2 and 3, 22(S),23(R),24(R),25-tetrahydroxycucurbita-5-ene was tested at different concentrations (10^−10, 10^−7, 10^−6, 10^−5 M).

[4] = system: glucose transporter 4 (GLUT4); test: GLUT4 translocation in 3T3-L1 adipose cells; format: cell-based
Procedure: Dose-dependent effect of 22(S),23(R),24(R),25-tetrahydroxycucurbita-5-ene on GLUT4 translocation and the phosphorylation of AMPK in 3T3-L1 adipose cells (FIG. 4)
as §1
A. 10 μM 22(S),23(R),24(R),25-tetrahydroxycucurbita-5-ene or 100 nM insulin (positive control) was added in the differentiated 3T3-L1 adipose cells using DMSO (final concentration of DMSO: 0.2%) as a solvent with or without wortmanin (an inhibitor of monophosphoinositide 3-kinase), and the activity on GLUT4 translocation was determined as described in experimental example 2. The data were expressed in mean±standard error (X±SE). The significances were shown as *p<0.05 and **p<0.01 compared with the solvent control groups.

protein kinase B (Akt) [5] = test: phosphorylation of protein kinase B [Akt (S473)] in 3T3-L1 adipose cells; format: cell-based; settings: 10 μM, 30 minutes
Procedure: (§2) B. 3T3-L1 adipose cells and L6 muscle cells were incubated for 30 minutes in a medium containing 10 μM trihydroxycucurbita-5,23(E)-dien-19-al or 22(S),23(R),24(R),25-tetrahydroxycucurbita-5-ene, or a medium containing 100 nM insulin (positive control) or DMSO as a solvent control. The phosphorylation of protein kinase B [Akt (S473)] and the total protein kinase B (14-3-3) were determined with corresponding antibodies. The significances are shown as *p<0.05 and **p<0.01 compared with the solvent control groups.

protein kinase B (Akt) [6] = test: phosphorylation of protein kinase B [Akt (S473)] in L6 muscle cells; format: cell-based; settings: 10 μM, 30 minutes
Procedure: as §2

L6 muscle cells = test: glucose uptake in L6 muscle cells (2-[3H]-deoxy-D-glucose); format: cell-based; settings: 10 μM, 2 hours, p<0.05 vs control
Procedure: Testing the effect of momordicoside A on the glucose uptake in L6 muscle cells (FIG. 1)
After L6 cells were differentiated to myotube completely, they were incubated in serum-free DMEM containing 0.5% BSA for 16 hours. […] After that, they were washed with 1×PBS preheated at 37° C. twice, and 0.5% BSA Krebs buffer (NaCl 140 mM, KCl 5 mM, MgSO4 2.5 mM, CaCl2 1 mM, HEPES 20 mM, pH7.4) without or with insulin (final concentration 100 nM), followed by incubation at 37° C. for 40 minutes. A 2-[1,2-3H(N)]-deoxy-D-glucose solution (final concentration 0.5 μCi/ml) was added therein and incubated for 10 minutes at 37° C. Then the reaction was terminated by washing three times with ice-cold 1×PBS and 0.15 ml of 0.1% Triton was added therein for the lysis of the cells the counting in a liquid-scintillation counter. After the CPM value was corrected with the protein amount, the glucose uptake amount of L6 cells was calculated.
The data are shown in mean±standard error (X±SE) (n=3). The significance was shown as *p<0.05 compared with control groups under corresponding conditions.

[7] = tested at 10^−10, 10^−7, 10^−6, 10^−5 M

Compound	hypoglycemic effect [1]	translocation of glucose transporter 4 (GLUT4) to the cell membrane [2]	activation of the AMPK signaling pathway (pACC, pAMPK) [3]	concentration at which the maximal effect on phosphorylation of AMPK was reached [3, 7]	effect of wortmanin (PI3-kinase inhibitor) on the compound's activity on GLUT4 translocation ([4]; 10 μM, with or without wortmanin)	concentration at which the maximal effect on GLUT4 translocation was reached [4, 7]	phosphorylation of protein kinase B [Akt (S473)] (protein kinase B (Akt) [5])	phosphorylation of protein kinase B [Akt (S473)] (protein kinase B (Akt) [6])	glucose uptake in L6 cells under the stimulus of insulin (L6 muscle cells; 100 nM insulin)	glucose uptake in L6 cells at base level (L6 muscle cells; without insulin)
CC(CC=CC(C)(C)O)C1CCC2(C)C3C=CC45OCC3(CCC12C)C4CCC(O)C5(C)C (stereo not drawn) [5β, 19-epoxy-3β,25-dihydroxycucurbita-6,23(E)-diene]	showed hypoglycemic effect	–	–	–	–	–	–	–	–	–
C[C@H]([C@H](O)[C@@H](O)[C@@H](O)C(C)(C)O)[C@H]1CC[C@@]2(C)C3CC=C4C(CC[C@H](O)C4(C)C)[C@]3(C)CC[C@]12C (stereo partly drawn) [22(S),23(R),24(R),25-tetrahydroxycucurbita-5-ene]	–	capable of promoting the translocation	capable of activating the AMPK signaling pathway significantly	10^−6 M	did not affect the activity	10^−6 M	not able to increase the phosphorylation of protein kinase B	not able to increase the phosphorylation of protein kinase B	–	–
C[C@H](C/C=C/C(C)(C)O)[C@H]1CC[C@@]2(C)C3[C@@H](O)C=C4C(CC[C@H](O)C4(C)C)[C@]3(C=O)CC[C@]12C (stereo partly drawn) [trihydroxycucurbita-5,23(E)-dien-19-al]	showed hypoglycemic effect	capable of promoting the translocation	capable of activating the AMPK signaling pathway significantly	–	–	–	not able to increase the phosphorylation of protein kinase B	not able to increase the phosphorylation of protein kinase B	–	–
momordicoside A	–	–	–	–	–	–	–	–	increased significantly	increased significantly
